Assay [1] concerns EA.hy 926. Description: Cytotoxicity against human EA.hy 926 cells assessed as inhibition of cell proliferation at 20 uM after 24 hrs by MTT assay. The format is functional, cell-based. Background: Tetrazolium assays rely on reduction of a dye to a coloured formazan, in cell work by metabolically active cells.
Assay [2] deals with EA.hy 926. Put plainly: Antiinflammatory activity in TNFalpha-induced human EA.hy 926 cells assessed as decrease in […] expression at 20 uM pretreated with compound for 1 hr followed by TNFalpha challenge and further incubated for 24 hrs by SYBR-green based qRT-PCR analysis. The format is functional, cell-based. Particulars: time 25.0 hrs. In general terms: Quantitative PCR measures a nucleic acid by following its amplification.

Assay [3] deals with EA.hy 926. Description: Antiinflammatory activity in TNFalpha-induced human EA.hy 926 cells assessed as decrease in IL1B expression at 20 uM pretreated with compound for 1 hr followed by TNFalpha challenge and further incubated for 24 hrs by SYBR-green based qRT-PCR analysis. Type of assay: functional, cell-based. Particulars: time 25.0 hrs.
In assay [4] the test system is EA.hy 926. Description: Antiinflammatory activity in TNFalpha-induced human EA.hy 926 cells assessed as decrease in IL8 expression at 20 uM pretreated with compound for 1 hr followed by TNFalpha challenge and further incubated for 24 hrs by SYBR-green based qRT-PCR analysis. The format is functional, cell-based. As to conditions: time 25.0 hrs.
Assay [5] deals with EA.hy 926. Description: Antiinflammatory activity in TNFalpha-induced human EA.hy 926 cells assessed as decrease in HLA-A expression by measuring log2 fold change at 20 uM pretreated with compound for 1 hr followed by TNFalpha challenge and further incubated for 24 hrs by SYBR-green based qRT-PCR analysis (reference value: 1.56). Particulars: time 25 hrs. The format is functional.

Assay [6] deals with EA.hy 926. Put plainly: Antiinflammatory activity in TNFalpha-induced human EA.hy 926 cells assessed as decrease in SOD-2 expression by measuring log2 fold change at 20 uM pretreated with compound for 1 hr followed by TNFalpha challenge and further incubated for 24 hrs by SYBR-green based qRT-PCR analysis (reference value: 2.69). The format is functional. As to conditions: time 25 hrs.

Assay [7] relates to EA.hy 926. Put plainly: Antiinflammatory activity in TNFalpha-induced human EA.hy 926 cells assessed as decrease in ICAM-1 expression by measuring log2 fold change at 20 uM pretreated with compound for 1 hr followed by TNFalpha challenge and further incubated for 24 hrs by SYBR-green based qRT-PCR analysis. Type of assay: functional. Particulars: time 25 hrs.

Active and inactive are the calls of the source. No cut-off for these calls is given here.

For `O=C(/C=C/c1cccnc1)c1ccncc1`, the inhibition result in the assay with EA.hy 926 [1] was “Active”. Besides, the outcome in the assay on EA.hy 926 [2], with EA.hy 926 [3] and in the assay on EA.hy 926 [4] was Active. In addition, the log2FC in the assay with EA.hy 926 [5] is on record as -0.75; with EA.hy 926 [6] it was -0.53; in the assay with EA.hy 926 [7] it was -0.47.

(Values after ChEMBL document CHEMBL4665646, “Mass Spectrometry-based Label-free Quantitative Proteomics To Study the Effect of 3PO Drug at Cellular Level” (2019).)
